Like-named read-outs stand apart in the source and are kept apart here.
Key:
[1] = system: Hep 3B human hepatic cell line; conditions: 62.5, 125, 250 μg/ml, 1 h before X/XO, MTT after 12 h
Protocol: (§1) The cells were seeded in a 96-well culture plate, in a proportion of 5×10^4 cells per well, in a final volume of 50 μl.
One hundred μl of Mangafodipir solution at various concentrations (62.5, 125, 250 μg/ml) were deposited into each well (three wells per concentration tested).

[2] = system: acetaminophen-induced acute hepatic failure; conditions: mice given acetaminophen
Description: In each of the groups, the livers of several animals were removed in order to perform a histological study.

[3] = system: acetaminophen-induced acute hepatic failure; conditions: for survival rate: 24 hours after APAP 1000 mg/kg; for number of surviving animals: n = 12
Protocol: Intraperitoneal injection of acetaminophen into mice induces severe hepatotoxicity, the degree of which can be evaluated by animal survival and macroscopic and microscopic examination of the livers.
The Mangafodipir (marketed under the name […]™ by Nicomed-Amersham) is administered in the form of a bolus, intraperitoneally.
The acetaminophen (APAP), in solution at 100 mg/ml in PBS, at pH 7.4, is administered intraperitoneally.
In a first series of experiments, one group of mice was given a dose of 1000 mg/kg of acetaminophen; a second group was given a dose of 1000 mg/kg of acetaminophen, and a dose of 10 mg/kg of Mangafodipir administered either 2 h before the acetaminophen, or 6 h after; a control group was given Mangafodipir alone (10 mg/kg), or PBS alone.
Animal survival was monitored for 24 hours after the administration of acetaminophen.

[4] = system: acetaminophen-induced acute hepatic failure; conditions: 500 mg/kg APAP, ASAT after 12 hours
Protocol: In a second series of experiments, one group of mice was given a dose of 500 mg/kg of acetaminophen; a second group was given the same dose of acetaminophen, and a dose of 10 mg/kg of Mangafodipir administered 2 h before the acetaminophen; a third group of animals was given the same dose of acetaminophen, and a dose of 10 mg/kg of MnTBAP, and a fourth group of animals was given the same dose of acetaminophen, and a dose of 10 mg/kg of CuDIPS. The ASAT serum transaminases are assayed 12 hours after the administration of acetaminophen.

[5] = Protocol: The SOD activity of a chemical compound can be determined by the NBT (nitro blue tetrazolium) reduction method according to the technique described by Beauchamp and Fridovich [Anal. Biochem., 44(1), 276-87, (1971)].
The test is carried out at 25° C. in a final volume of buffer of 0.8 ml (50 mM TRIS/HCl, pH 7.6), containing 22 μM of xanthine, 500 U/ml of catalase and 0.2 U/ml of xanthine oxidase. The reduction of NBT, in the presence of 1.5 μg of Mangafodipir or, as a control, in the absence of Mangafodipir, is measured every 30 seconds for 5 minutes. One SOD unit (U SOD) is defined by the amount of enzyme capable of inhibiting the NBT reduction rate by 50%.

[6] = 75.7 μg of Mangafodipir, 10 mM H2O2, pH 7.4
Protocol: The catalase activity was assayed according to the method described by AEBI [Methods Enzymol., 105, 121-126, (1984)]. The decrease in optical density (OD) at 240 nm of a solution of 10 mM H2O2 in phosphate buffer (50 mM of Na2HPO4/KH2PO4, 0.1 mM EDTA, pH 7.4) was measured in the presence of 75.7 μg of Mangafodipir or, by way of reference, in the presence of 1 unit of bovine catalase.

[7] = system: Hep 3B human hepatic cell line; conditions: 62.5, 125, 250 μg/ml, 1 h before H2O2, MTT after 12 h
Protocol: The Hep 3B human hepatic cell line was also used for these experiments.
as §1
One hundred μl of Mangafodipir solution at various concentrations (62.5, 125, 250 μg/ml) were deposited into each well (three wells per concentration tested). After incubation for one hour, 50 μl of a solution of H2O2 at 4 mM were deposited into each well.

[8] = system: acetaminophen-induced acute hepatic failure; assay: Animal survival in acetaminophen-induced acute hepatic failure, comparison of Mangafodipir, MnTBAP and CuDIPS (Example 7); assay type: in vivo, mice; conditions: for number of surviving animals: 10 mg/kg bolus 2 h before 1000 mg/kg APAP, n = 12
Protocol: The Mangafodipir, the MnTBAP or the CuDIPS are administered in the form of a bolus, in the preventive capacity, 2 hours before the acetaminophen.
Animal survival is monitored for 24 hours after the administration of acetaminophen.

With “Manganese dipyridoxyl phosphate [Mangafodipir]” the “mortality of hepatic cells under superoxide anion-mediated oxidative stress” value [1] was “prevents the mortality of hepatic cells”, the “apoptotic lesions in liver, treated versus not treated” value [2] was “considerably fewer apoptotic lesions” and the survival rate ([3]; Mangafodipir after acetaminophen (curative protocol)) was “greater than 41%”. For the same substance, the survival rate ([3]; Mangafodipir before acetaminophen (preventive protocol)) was “about 66%”, the “number of surviving animals” value ([3]; Group III preventive, 10 mg/kg i.p. 2 h before 1000 mg/kg APAP, time 0 h) was 12 and the “number of surviving animals” value ([3]; Group III preventive, 10 mg/kg i.p. 2 h before 1000 mg/kg APAP, time 6 h) was 12. For the same substance, the “number of surviving animals” value ([3]; Group III preventive, 10 mg/kg i.p. 2 h before 1000 mg/kg APAP, time 8 h) was 12, the “number of surviving animals” value ([3]; Group III preventive, 10 mg/kg i.p. 2 h before 1000 mg/kg APAP, time 9 h) was 12 and the “number of surviving animals” value ([3]; Group III preventive, 10 mg/kg i.p. 2 h before 1000 mg/kg APAP, time 10 h) was 11. The “number of surviving animals” value ([3]; Group III preventive, 10 mg/kg i.p. 2 h before 1000 mg/kg APAP, time 11 h) was 11, the “number of surviving animals” value ([3]; Group III preventive, 10 mg/kg i.p. 2 h before 1000 mg/kg APAP, time 12 h) was 11 and the “number of surviving animals” value ([3]; Group III preventive, 10 mg/kg i.p. 2 h before 1000 mg/kg APAP, time 13 h) was 10. The “number of surviving animals” value ([3]; Group III preventive, 10 mg/kg i.p. 2 h before 1000 mg/kg APAP, time 14 h) was 10, the “number of surviving animals” value ([3]; Group III preventive, 10 mg/kg i.p. 2 h before 1000 mg/kg APAP, time 15 h) was 10 and the “number of surviving animals” value ([3]; Group III preventive, 10 mg/kg i.p. 2 h before 1000 mg/kg APAP, time 16 h) was 9. The “number of surviving animals” value ([3]; Group III preventive, 10 mg/kg i.p. 2 h before 1000 mg/kg APAP, time 17 h) was 9, the “number of surviving animals” value ([3]; Group III preventive, 10 mg/kg i.p. 2 h before 1000 mg/kg APAP, time 18 h) was 9 and the “number of surviving animals” value ([3]; Group III preventive, 10 mg/kg i.p. 2 h before 1000 mg/kg APAP, time 20 h) was 9. For the same substance, the “number of surviving animals” value ([3]; Group III preventive, 10 mg/kg i.p. 2 h before 1000 mg/kg APAP, time 22 h) was 8, the “number of surviving animals” value ([3]; Group III preventive, 10 mg/kg i.p. 2 h before 1000 mg/kg APAP, time 24 h) was 8 and the “number of surviving animals” value ([3]; Group IV curative, 10 mg/kg i.p. 6 h after 1000 mg/kg APAP, time 0 h) was 12. The “number of surviving animals” value ([3]; Group IV curative, 10 mg/kg i.p. 6 h after 1000 mg/kg APAP, time 6 h) was 12, the “number of surviving animals” value ([3]; Group IV curative, 10 mg/kg i.p. 6 h after 1000 mg/kg APAP, time 8 h) was 11 and the “number of surviving animals” value ([3]; Group IV curative, 10 mg/kg i.p. 6 h after 1000 mg/kg APAP, time 9 h) was 11. The “number of surviving animals” value ([3]; Group IV curative, 10 mg/kg i.p. 6 h after 1000 mg/kg APAP, time 10 h) was 10, the “number of surviving animals” value ([3]; Group IV curative, 10 mg/kg i.p. 6 h after 1000 mg/kg APAP, time 11 h) was 9 and the “number of surviving animals” value ([3]; Group IV curative, 10 mg/kg i.p. 6 h after 1000 mg/kg APAP, time 12 h) was 9. The “number of surviving animals” value ([3]; Group IV curative, 10 mg/kg i.p. 6 h after 1000 mg/kg APAP, time 13 h) was 8, the “number of surviving animals” value ([3]; Group IV curative, 10 mg/kg i.p. 6 h after 1000 mg/kg APAP, time 14 h) was 8 and the “number of surviving animals” value ([3]; Group IV curative, 10 mg/kg i.p. 6 h after 1000 mg/kg APAP, time 15 h) was 8. The “number of surviving animals” value ([3]; Group IV curative, 10 mg/kg i.p. 6 h after 1000 mg/kg APAP, time 16 h) was 7, the “number of surviving animals” value ([3]; Group IV curative, 10 mg/kg i.p. 6 h after 1000 mg/kg APAP, time 17 h) was 7 and the “number of surviving animals” value ([3]; Group IV curative, 10 mg/kg i.p. 6 h after 1000 mg/kg APAP, time 18 h) was 7. For the same substance, the “number of surviving animals” value ([3]; Group IV curative, 10 mg/kg i.p. 6 h after 1000 mg/kg APAP, time 20 h) was 6, the “number of surviving animals” value ([3]; Group IV curative, 10 mg/kg i.p. 6 h after 1000 mg/kg APAP, time 22 h) was 6 and the “number of surviving animals” value ([3]; Group IV curative, 10 mg/kg i.p. 6 h after 1000 mg/kg APAP, time 24 h) was 5. For the same substance, the “transaminase activities, APAP500 alone relative to Mangafodipir pretreatment” value ([4]; 10 mg/kg 2 h before) was 10 times, the “effect on transaminase activities” value ([4]; 10 mg/kg) was “decreases the transaminase activities” and the “rate of reduction of NBT” value ([5]; 1.5 μg of Mangafodipir in reaction mixture, control 0.0302/minute) was 0.01556 min⁻¹. For the same substance, the SOD activity ([5]; 1 U SOD inhibits NBT reduction rate by 50%) was 680 U SOD per milligram of Mangafodipir, the catalase activity [6] was 2 U catalase per milligram of Mangafodipir and the “mortality of hepatic cells under hydrogen peroxide-mediated oxidative stress” value [7] was “prevents the mortality of hepatic cells”. The “number of surviving animals” value ([8]; time 0 h) was 12, the “number of surviving animals” value ([8]; time 6 h) was 12 and the “number of surviving animals” value ([8]; time 8 h) was 12. The “number of surviving animals” value ([8]; time 9 h) was 12, the “number of surviving animals” value ([8]; time 10 h) was 11 and the “number of surviving animals” value ([8]; time 11 h) was 11. The “number of surviving animals” value ([8]; time 12 h) was 11, the “number of surviving animals” value ([8]; time 13 h) was 10 and the “number of surviving animals” value ([8]; time 14 h) was 10. The “number of surviving animals” value ([8]; time 15 h) was 10, the “number of surviving animals” value ([8]; time 16 h) was 9 and the “number of surviving animals” value ([8]; time 17 h) was 9. For the same substance, the “number of surviving animals” value ([8]; time 18 h) was 9, the “number of surviving animals” value ([8]; time 20 h) was 9 and the “number of surviving animals” value ([8]; time 22 h) was 8. For the same substance, the “number of surviving animals” value ([8]; time 24 h) was 8 and the “effect on survival rate” value ([8]; 10 mg/kg preventively, 1000 mg/kg APAP, 24 h) was “increases the survival rate in a manner at least equal to the MnTBAP”.

Source: patent US7351722B2, “Use of Mangafodipir for treating oxidative stress effects” (Universite Rene Descartes (Paris V), priority 2001, dated 2008)
